Reference: ChEMBL document CHEMBL1201862, “PubChem BioAssay data set” (2004)
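All cell lines were grown in 96-well plates and treated with compound for 48 hours. GI50 is the concentration that inhibits growth by half.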 The source made the active and inactive calls. Cut-off read from the data, not from the text of the source: active = GI50 up to about 1.1 µM and inactive = higher.

Tests used:
Test in all cases: inhibition of tumour cell growth, NCI panel, 48 h
OVCAR-4 = tested on: OVCAR-4
DMS-114 = tested on: DMS-114
SW-620 = tested on: SW-620
NCI-H23 = tested on: NCI-H23
CAKI-1 = tested on: CAKI-1
M19-MEL = tested on: M19-MEL
SNB-75 = tested on: SNB-75
SNB-78 = tested on: SNB-78
TK-10 = tested on: TK-10
HL-60 = tested on: HL-60
UO-31 = tested on: UO-31
Malme-3M = tested on: Malme-3M
HCC 2998 = tested on: HCC 2998
LXFL 529 = tested on: LXFL 529
SNB-19 = tested on: SNB-19
NCI-H460 = tested on: NCI-H460
RPMI-8226 = tested on: RPMI-8226
SK-OV-3 = tested on: SK-OV-3
DU-145 = tested on: DU-145
NCI/ADR-RES = tested on: NCI/ADR-RES

Row | Compound | GI50 (OVCAR-4) | GI50 (DMS-114) | GI50 (SW-620) | GI50 (NCI-H23) | GI50 (CAKI-1) | GI50 (M19-MEL) | GI50 (SNB-75) | GI50 (SNB-78) | GI50 (TK-10) | GI50 (HL-60) | GI50 (UO-31) | GI50 (Malme-3M) | GI50 (HCC 2998) | GI50 (LXFL 529) | GI50 (SNB-19) | GI50 (NCI-H460) | GI50 (RPMI-8226) | GI50 (SK-OV-3) | GI50 (DU-145) | GI50 (NCI/ADR-RES)
1 | COc1cc([C@@H]2c3cc4c(cc3[C@@H](NCc3ccccc3F)C3COC(=O)[C@@H]32)OCO4)cc(OC)c1O (stereo partly specified) | 16.6 µM (inactive) | 3.45 µM (inactive) | 0.851 µM (active) | 2.29 µM (inactive) | 1.91 µM (inactive) | 3.47 µM (inactive) | 5.45 µM (inactive) | 25.8 µM (inactive) | 27.6 µM (inactive) | 1.18 µM (inactive) | 4.05 µM (inactive) | 5.94 µM (inactive) | 11.8 µM (inactive) | 11.3 µM (inactive) | 5.36 µM (inactive) | 0.56 µM (active) | 1.93 µM (inactive) | 2.58 µM (inactive) | – | –
2 | NCCN1C(=O)C2C3c4ccccc4C(c4ccccc43)C2C1=O (stereo unspecified) | > 100 µM (inactive) | > 100 µM (inactive) | > 100 µM (inactive) | > 100 µM (inactive) | > 100 µM (inactive) | > 100 µM (inactive) | 43.3 µM (inactive) | > 100 µM (inactive) | > 100 µM (inactive) | > 100 µM (inactive) | > 100 µM (inactive) | > 100 µM (inactive) | > 100 µM (inactive) | > 100 µM (inactive) | > 100 µM (inactive) | > 100 µM (inactive) | > 100 µM (inactive) | > 100 µM (inactive) | – | –
3 | Nc1ccccc1C(=O)/C=C/c1ccccc1O | 48.6 µM (inactive) | 29.8 µM (inactive) | 35.4 µM (inactive) | 56 µM (inactive) | 25.6 µM (inactive) | 72.3 µM (inactive) | 17.5 µM (inactive) | 41.5 µM (inactive) | 93.5 µM (inactive) | 22.8 µM (inactive) | 58.5 µM (inactive) | > 100 µM (inactive) | 32.3 µM (inactive) | 39.2 µM (inactive) | 81.1 µM (inactive) | 67.1 µM (inactive) | 27.5 µM (inactive) | > 100 µM (inactive) | – | –
4 | [N-]=[N+]=NC(CCl)c1cn([C@H]2C[C@H](O)[C@@H](CO)O2)c(=O)[nH]c1=O (stereo partly specified) | – | > 100 µM (inactive) | > 100 µM (inactive) | > 100 µM (inactive) | > 100 µM (inactive) | > 100 µM (inactive) | > 100 µM (inactive) | > 100 µM (inactive) | > 100 µM (inactive) | > 100 µM (inactive) | > 100 µM (inactive) | > 100 µM (inactive) | > 100 µM (inactive) | > 100 µM (inactive) | > 100 µM (inactive) | > 100 µM (inactive) | > 100 µM (inactive) | > 100 µM (inactive) | – | –
5 | C/C(=N\NC(=S)N1CCN(c2ccccn2)CC1)c1ncccn1 | 0.205 µM (active) | 0.00233 µM (active) | 0.196 µM (active) | < 0.0288 µM (active) | 1.76 µM (inactive) | 0.638 µM (active) | 3.43 µM (inactive) | 6.05 µM (inactive) | 2.67 µM (inactive) | 0.00752 µM (active) | 0.993 µM (active) | 0.267 µM (active) | 0.361 µM (active) | 0.001 µM (active) | 2.56 µM (inactive) | 0.0726 µM (active) | 0.0131 µM (active) | 0.284 µM (active) | 2.51 µM (inactive) | 0.0179 µM (active)
6 | CO[C@]12CCC(=O)N1C=Cc1c2[nH]c2ccccc12 | > 100 µM (inactive) | > 100 µM (inactive) | > 100 µM (inactive) | > 100 µM (inactive) | > 100 µM (inactive) | > 100 µM (inactive) | > 100 µM (inactive) | > 100 µM (inactive) | > 100 µM (inactive) | > 100 µM (inactive) | > 100 µM (inactive) | > 100 µM (inactive) | > 100 µM (inactive) | > 100 µM (inactive) | > 100 µM (inactive) | > 100 µM (inactive) | > 100 µM (inactive) | – | – | –
7 | CC1(C)C2C/C(=C\c3ccccc3)C(=O)C1C2 (stereo unspecified) | > 100 µM (inactive) | 68.1 µM (inactive) | > 100 µM (inactive) | 55.8 µM (inactive) | > 100 µM (inactive) | > 100 µM (inactive) | 25.1 µM (inactive) | > 100 µM (inactive) | > 100 µM (inactive) | 35.9 µM (inactive) | 31.1 µM (inactive) | > 100 µM (inactive) | > 100 µM (inactive) | > 100 µM (inactive) | > 100 µM (inactive) | > 100 µM (inactive) | 61.8 µM (inactive) | > 100 µM (inactive) | – | –
8 | N#Cc1cc([N+](=O)[O-])ccc1NC(=O)C(=O)Nc1n[nH]c(N)n1 | > 100 µM (inactive) | > 100 µM (inactive) | > 100 µM (inactive) | > 100 µM (inactive) | > 100 µM (inactive) | > 100 µM (inactive) | > 100 µM (inactive) | > 100 µM (inactive) | > 100 µM (inactive) | > 100 µM (inactive) | > 100 µM (inactive) | > 100 µM (inactive) | > 100 µM (inactive) | > 100 µM (inactive) | > 100 µM (inactive) | > 100 µM (inactive) | > 100 µM (inactive) | > 100 µM (inactive) | – | –
9 | CC(=O)O[C@H]1CCC2[C@@H]3CC[C@]4(C)CC(=O)C=C[C@]4(C)C3CC[C@@]21C (stereo partly specified) | 16.9 µM (inactive) | 11.3 µM (inactive) | 18.3 µM (inactive) | 21.9 µM (inactive) | 83.4 µM (inactive) | 18.8 µM (inactive) | 46 µM (inactive) | 14.9 µM (inactive) | 54.7 µM (inactive) | 20.4 µM (inactive) | 6.3 µM (inactive) | 19.4 µM (inactive) | 45.6 µM (inactive) | 14.8 µM (inactive) | 51.3 µM (inactive) | 17.5 µM (inactive) | 23 µM (inactive) | 65.8 µM (inactive) | > 100 µM (inactive) | 22 µM (inactive)
10 | CCCCCCCCCCCCCCCCOP(=O)(O)Oc1ccc(/C=C\c2ccc(OP(=O)(O)OCCCCCCCCCCCCCCCC)cc2)cc1 | 62.5 µM (inactive) | 10.1 µM (inactive) | > 100 µM (inactive) | 23.5 µM (inactive) | > 100 µM (inactive) | 38.7 µM (inactive) | 12 µM (inactive) | 20.1 µM (inactive) | 25.1 µM (inactive) | 26 µM (inactive) | > 100 µM (inactive) | > 100 µM (inactive) | > 100 µM (inactive) | 28.3 µM (inactive) | 64.1 µM (inactive) | 56.4 µM (inactive) | 19.3 µM (inactive) | > 100 µM (inactive) | – | –
11 | CCN(CC)CCOc1ccc(/C=C(\C#N)c2ccc(OCCN(CC)CC)cc2)cc1 | 37.3 µM (inactive) | 10.8 µM (inactive) | 15.3 µM (inactive) | 17.3 µM (inactive) | > 43.7 µM (inactive) | 14.8 µM (inactive) | 16 µM (inactive) | 20.5 µM (inactive) | > 59.7 µM (inactive) | 4.84 µM (inactive) | 14.7 µM (inactive) | 14.5 µM (inactive) | 15.7 µM (inactive) | 16.1 µM (inactive) | 36.4 µM (inactive) | 18.1 µM (inactive) | 13 µM (inactive) | 28.2 µM (inactive) | 65.6 µM (inactive) | –
